Results on one compound are retold here after paper PMC7272483, “Insights into the pH-dependent, extracellular sucrose utilization and concomitant levan formation by Gluconobacter albidus TMW 2.1191” (Antonie Van Leeuwenhoek, 2020).

In the experiment the target is T1, levansucrase of G. albidus TMW 2.1191 (Gluconobacter albidus, UniProt A0A149SZ56).
T1 construct: gene lsc-2; cloned levansucrase gene expressed from pBAD in E. coli Top 10, crude lysate (Ni-NTA purification failed); native released enzyme ~48 kDa monomer, also tested in crude buffer supernatant
T1 sequence (A0A149SZ56 1-436): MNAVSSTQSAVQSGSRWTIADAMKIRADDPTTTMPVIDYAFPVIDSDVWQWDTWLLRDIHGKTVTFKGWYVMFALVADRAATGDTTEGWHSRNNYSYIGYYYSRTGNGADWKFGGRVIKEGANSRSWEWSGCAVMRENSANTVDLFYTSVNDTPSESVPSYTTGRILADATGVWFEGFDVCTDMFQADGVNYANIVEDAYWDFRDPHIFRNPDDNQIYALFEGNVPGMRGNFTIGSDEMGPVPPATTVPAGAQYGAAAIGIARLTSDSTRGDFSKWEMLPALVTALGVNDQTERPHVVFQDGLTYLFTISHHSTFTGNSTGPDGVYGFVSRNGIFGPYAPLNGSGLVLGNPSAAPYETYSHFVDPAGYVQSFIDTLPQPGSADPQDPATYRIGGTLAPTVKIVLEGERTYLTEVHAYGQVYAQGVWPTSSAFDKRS
Put plainly: glucose/fructose release, enzymatic D-fructose/D-glucose kit. The format is cell-based. The conditions noted are these: E. coli lysate with recombinant enzyme; pH 3.0-7.0, 30 °C, 1 h; hydrolysis and transfructosylation.

In the case of `OC[C@H]1O[C@@](CO)(O[C@H]2O[C@H](CO)[C@@H](O)[C@H](O)[C@H]2O)[C@@H](O)[C@@H]1O` [sucrose], the volumetric activity result was “the enzyme exhibits comparable activities and Michaelis–Menten kinetics within a broad pH range”.
